Measured values from US8901118B2, “Compounds and methods for kinase modulation, and indications therefor” (Plexxikon Inc., priority 2010, dated 2014).

Legend:
BCR-KIT BaF3 cells = biological target: T1, BCR-KIT BaF3 cells (Homo sapiens, UniProt P10721); test: BaF3 BCR-KIT cell proliferation assay (ATPlite); type: cell-based; conditions: read-out: Inhibition of Cell Proliferation IC50, BCR/BaF3 Kit
T1 construct: fused on or other part: P11274 (Breakpoint cluster region protein)
Experimental: (§1) Compounds are assessed in a variety of cell based assays. For example BaF3 cells engineered with any of BCR-FMS, BCR-KIT, BCR-FLT3, BCR-NTRK1, BCR-NTRK2, and BCR-NTRK3, are used in cell proliferation assays to assess inhibitory activity of Fms, Kit, Flt-3, TrkA, TrkB, and TrkC, respectively. An MV-4-11 (leukemia) cell proliferation assay is used to assess inhibitory activity in Flt-3, and SKNSH (human neuroblastoma) cell proliferation assay is used to assess efficacy of Fms/Trk inhibitors. Additional cells may be assayed similarly to assess the efficacy of Fms/Trk inhibitors, such as MiaPaCa (human pancreatic cancer) and Capan-1 (human pancreatic carcinoma) cells. Reagent and assay conditions are as follows: • BaF3 cells: • Maintained in RPMI containing 10% FBS, 1% PenStrep, 1% NEAA, and 1% L-Glutamine, supplemented with 1 mg/mL G418 and 5% WEHI-CM (or recombinant murine IL-3). • Confluent cells are split 1:50 to 1:100 every 3-4 days. • MV-4-11 cells: • Maintained in Iscove's Modified Dulbecco's Medium containing 10% FBS. • Confluent cells are split 1:4 every 3-4 days. • SKNSH cells: RPMI containing 10% FBS. On day 1, cells are counted, then centrifuged in a conical tube for 5 minutes at 1000 rpm. The supernatant is removed and cells are re-suspended as follows: • BaF3: resuspend in growth media +1 mg/mL G418 (without WEHFIL-3) to 2×10^5 cells/mL. • MV-4-11: resuspend in growth media to 5×10^5 cells/mL. • SKNSH: resuspend in growth media to 2×10^4 cells/mL. The cells are plated (50 μL, 150 μL for SKNSH cells) in each well of a 96-well dish (Corning 3610) and incubated at 37° C. in 5% CO2 overnight, cells plated to a final concentration of cells as follows: • BaF3: 10,000 cells per well. • MV-4-11: 25,000 cells per well. • SKNSH: 3,000 cells per well. On day 2, compound at a maximum concentration of 5 mM is serially diluted 1:3 for a total of 8 point titration with DMSO as a control. A 1 μL aliquot of each dilution point is added to 249 μL growth media and 50 μL is added to a well containing cells, providing 10 μM compound for the maximum concentration point. The cells are incubated for 3 days at 37° C. in 5% CO2. For SKNSH cells, a 0.75 μL aliquot of appropriate dilution in DMSO is added to 150 μL of cells. On day 5, ATPlite 1 step Luminescence Assay System (Perkin Elmer #6016739) is brought to room temperature along with the cell cultures. ATPlite is added to each well as follows: • BaF3: 25 μL per well. • MV-4-11: 40 μL per well. • SKNSH: 20 μL per well. The cells are incubated at room temperature for 10 minutes, then luminescence is read on Safire reader. The measured luminescence correlates directly with cell number, such that the reading as a function of compound concentration is used to determine the IC50 value.
(§2) It is understood that the results of these assays may vary as assay conditions are varied. Inhibition levels determined under the conditions described herein represent a relative activity for the compounds tested under the specific conditions employed. The cell based assays are likely to show variability due to the complexity of the system and the sensitivity thereof to any changes in the assay conditions. […] Results for compounds that are tested and show substantially no inhibition below the highest tested concentration are represented as “-” in the tables below. In some instances, the compounds were not tested in all of the assays, or assay results were not valid, as indicated by NA in the tables below.

SKNSH cells = test: SKNSH (human neuroblastoma) cell proliferation assay (ATPlite); type: cell-based; conditions: SK-N-SH, read-out: Inhibition of Cell Proliferation IC50, SKNSH
Experimental: as §1, §2

TrkA kinase = TrkA kinase (Homo sapiens, UniProt P04629); test: TrkA kinase biochemical activity assay (AlphaScreen); conditions: 100 μM ATP; read-out: Biochemical Inhibition IC50 TrkA
TrkA kinase, sequence (P04629 33-796): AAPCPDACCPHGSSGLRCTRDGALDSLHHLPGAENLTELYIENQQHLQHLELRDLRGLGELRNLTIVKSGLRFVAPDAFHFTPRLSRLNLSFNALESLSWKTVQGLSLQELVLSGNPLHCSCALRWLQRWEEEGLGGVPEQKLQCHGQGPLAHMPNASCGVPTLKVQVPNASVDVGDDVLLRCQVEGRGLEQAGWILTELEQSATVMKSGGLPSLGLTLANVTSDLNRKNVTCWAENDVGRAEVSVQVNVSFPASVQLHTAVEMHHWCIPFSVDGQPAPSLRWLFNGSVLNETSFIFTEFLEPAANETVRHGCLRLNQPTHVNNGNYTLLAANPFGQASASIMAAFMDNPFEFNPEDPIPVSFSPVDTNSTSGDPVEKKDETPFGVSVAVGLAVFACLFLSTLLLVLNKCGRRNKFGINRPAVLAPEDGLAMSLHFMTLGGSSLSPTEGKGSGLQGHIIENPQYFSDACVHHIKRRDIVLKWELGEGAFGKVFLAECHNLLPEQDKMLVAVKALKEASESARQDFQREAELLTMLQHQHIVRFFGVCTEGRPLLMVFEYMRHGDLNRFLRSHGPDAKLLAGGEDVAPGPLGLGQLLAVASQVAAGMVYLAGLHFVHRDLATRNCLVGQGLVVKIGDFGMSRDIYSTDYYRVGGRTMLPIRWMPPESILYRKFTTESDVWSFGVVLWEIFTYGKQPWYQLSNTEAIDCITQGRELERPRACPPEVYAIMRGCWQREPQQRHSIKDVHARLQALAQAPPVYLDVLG
Experimental: In one assay the biochemical activity IC50 values are determined with respect to inhibition of TrkA kinase activity, where inhibition of phosphorylation of a peptide substrate is measured as a function of compound concentration. Compounds to be tested, dissolved in DMSO (1 μL), are added to a white 384-well plate (Costar #3705). Working stocks of TrkA kinase (UBI), biotin-(E4Y)10 substrate (Upstate Biotech, Cat#12-440), and ATP (Sigma, Cat#A-3377) are prepared in 25 mM Hepes pH 7.5, 10 mM MnCl2, 1 mM DTT, 0.01% BSA, and 0.01% Tween-20. All components are added to the 384-well plate for a final concentration of 1 ng/well TrkA, 30 nM biotin-(E4Y)10 and 100 μM ATP in a volume of 20 μL. Each sample is at 5% DMSO. The plate is shaken for 1 minute at 1200 rpm, spun for 1 minute at 1000 rpm, then incubated for 40 minutes at room temperature. Just before use, working stocks of donor and acceptor beads from the AlphaScreen PY20 Detection Kit (PerkinElmer, Cat#676601M) are prepared in 25 mM Hepes pH 7.5, 100 mM EDTA. 0.01% BSA. Donor Beads solution (Streptavidin beads) is added (5 μL) to each well to final bead concentration of 10 μg/mL. The plate is incubated at room temperature for 20 minutes. Acceptor Beads solution (PY20 coated beads) are then added to each well (5 μL) to a final concentration of bead at 10 μg/mL. The plates are incubated at room temperature for 60 minutes. Fluorescence signal is recorded on the Envision reader. Phosphorylated substrate results in binding of the PY20 antibody and association of the donor and acceptor beads such that signal correlates with kinase activity. The signal vs. compound concentration is used to determine the IC50. Similar assays are used for TrkB and Trk C kinase.

T1 sequence (P10721 589-937): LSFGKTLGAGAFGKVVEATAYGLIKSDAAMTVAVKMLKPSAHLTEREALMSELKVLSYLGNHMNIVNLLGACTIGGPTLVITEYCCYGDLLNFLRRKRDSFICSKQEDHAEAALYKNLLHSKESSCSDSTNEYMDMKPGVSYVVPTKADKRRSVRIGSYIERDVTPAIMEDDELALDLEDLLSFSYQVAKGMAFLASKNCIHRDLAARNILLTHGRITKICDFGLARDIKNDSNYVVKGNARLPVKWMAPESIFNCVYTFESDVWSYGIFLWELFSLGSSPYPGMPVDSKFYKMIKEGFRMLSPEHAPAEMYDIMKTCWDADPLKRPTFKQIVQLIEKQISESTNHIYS

## COc1ccc(Nc2ccc(C(=O)c3c[nH]c4ncnc(NC(C)(C)C)c34)c(F)n2)cn1 [Compound P-4055, [4-(tert-butylamino)-7H-pyrrolo[2,3-d]pyrimidin-5-yl]-[2-fluoro-6-[(6-methoxy-3-pyridyl)amino]-3-pyridyl]methanone]
BCR-KIT BaF3 cells
  IC50: > 1000 nM
SKNSH cells
  IC50: < 1000 nM

## COc1ccc(Nc2ccc(C(=O)c3c[nH]c4ncnc(NC5CCC(F)(F)CC5)c34)c(F)n2)cn1 [Compound P-4056, [4-[(4,4-difluorocyclohexyl)amino]-7H-pyrrolo[2,3-d]pyrimidin-5-yl]-[2-fluoro-6-[(6-methoxy-3-pyridyl)amino]-3-pyridyl]methanone]
BCR-KIT BaF3 cells
  IC50: > 1000 nM
SKNSH cells
  IC50: < 1000 nM

## O=C(c1ccc(NC2CCC(F)(F)CC2)nc1Cl)c1c[nH]c2ncnc(NCC(F)(F)F)c12 [Compound P-4057, [2-chloro-6-[(4,4-difluorocyclohexyl)amino]-3-pyridyl]-[4-(2,2,2-trifluoroethylamino)-7H-pyrrolo[2,3-d]pyrimidin-5-yl]methanone]
TrkA kinase
  IC50: < 1000 nM
BCR-KIT BaF3 cells
  IC50: > 1000 nM
SKNSH cells
  IC50: < 10000 nM

## CNc1ncnc2[nH]cc(C(=O)c3ccc(NC4CCC(F)(F)CC4)nc3Cl)c12 [Compound P-4058, [2-chloro-6-[(4,4-difluorocyclohexyl)amino]-3-pyridyl]-[4-(methylamino)-7H-pyrrolo[2,3-d]pyrimidin-5-yl]methanone]
TrkA kinase
  IC50: < 1000 nM
BCR-KIT BaF3 cells
  IC50: < 1000 nM
SKNSH cells
  IC50: < 10000 nM

## O=C(c1ccc(NC2CCC(F)(F)CC2)nc1Cl)c1c[nH]c2ncnc(NC3CC3)c12 [Compound P-4059, [2-chloro-6-[(4,4-difluorocyclohexyl)amino]-3-pyridyl]-[4-(cyclopropylamino)-7H-pyrrolo[2,3-d]pyrimidin-5-yl]methanone]
TrkA kinase
  IC50: < 100 nM
BCR-KIT BaF3 cells
  IC50: > 1000 nM
SKNSH cells
  IC50: < 1000 nM

## CCNc1ncnc2[nH]cc(C(=O)c3ccc(Nc4ccc(C5CC5)nc4)nc3F)c12 [Compound P-4060, [6-[(6-cyclopropyl-3-pyridyl)amino]-2-fluoro-3-pyridyl]-[4-(ethylamino)-7H-pyrrolo[2,3-d]pyrimidin-5-yl]methanone]
TrkA kinase
  IC50: < 10 nM
BCR-KIT BaF3 cells
  IC50: < 100 nM
SKNSH cells
  IC50: < 100 nM

## O=C(c1ccc(Nc2ccc(C3CC3)nc2)nc1F)c1c[nH]c2ncnc(NC3CC3)c12 [Compound P-4093, [4-(cyclopropylamino)-7H-pyrrolo[2,3-d]pyrimidin-5-yl]-[6-[(6-cyclopropyl-3-pyridyl)amino]-2-fluoro-3-pyridyl]methanone]
TrkA kinase
  IC50: < 10 nM
BCR-KIT BaF3 cells
  IC50: < 100 nM

## Cc1ccc(Nc2ccc(C(=O)c3c[nH]c4ncnc(NC5CCCCC5)c34)c(F)n2)cn1 [Compound P-4111, [4-(cyclohexylamino)-7H-pyrrolo[2,3-d]pyrimidin-5-yl]-[2-fluoro-6-[(6-methyl-3-pyridyl)amino]-3-pyridyl]methanone]
TrkA kinase
  IC50: < 100 nM
BCR-KIT BaF3 cells
  IC50: < 1000 nM

## Cc1ccc(Nc2ccc(C(=O)c3c[nH]c4ncnc(NCC5CC5)c34)c(F)n2)cn1 [Compound P-4113, [4-(cyclopropylmethylamino)-7H-pyrrolo[2,3-d]pyrimidin-5-yl]-[2-fluoro-6-[(6-methyl-3-pyridyl)amino]-3-pyridyl]methanone]
TrkA kinase
  IC50: < 10 nM
BCR-KIT BaF3 cells
  IC50: < 1000 nM

## CCCNc1ncnc2[nH]cc(C(=O)c3ccc(Nc4ccc(C)nc4)nc3F)c12 [Compound P-4114, [2-fluoro-6-[(6-methyl-3-pyridyl)amino]-3-pyridyl]-[4-(propylamino)-7H-pyrrolo[2,3-d]pyrimidin-5-yl]methanone]
TrkA kinase
  IC50: < 10 nM
BCR-KIT BaF3 cells
  IC50: < 1000 nM

## CNc1ncnc2[nH]cc(C(=O)c3ccc(Nc4ccc(C)nc4)nc3F)c12 [Compound P-4115, [2-fluoro-6-[(6-methyl-3-pyridyl)amino]-3-pyridyl]-[4-(methylamino)-7H-pyrrolo[2,3-d]pyrimidin-5-yl]methanone]
TrkA kinase
  IC50: < 10 nM
BCR-KIT BaF3 cells
  IC50: < 1000 nM

## CCc1ccc(Nc2ccc(C(=O)c3c[nH]c4ncnc(NC5CCOCC5)c34)c(F)n2)cn1 [Compound P-4116, [6-[(6-ethyl-3-pyridyl)amino]-2-fluoro-3-pyridyl]-[4-(tetrahydropyran-4-ylamino)-7H-pyrrolo[2,3-d]pyrimidin-5-yl]methanone]
TrkA kinase
  IC50: < 10 nM
BCR-KIT BaF3 cells
  IC50: < 100 nM

## CCc1ccc(Nc2ccc(C(=O)c3c[nH]c4ncnc(NC(C)C)c34)c(F)n2)cn1 [Compound P-4117, [6-[(6-ethyl-3-pyridyl)amino]-2-fluoro-3-pyridyl]-[4-(isopropylamino)-7H-pyrrolo[2,3-d]pyrimidin-5-yl]methanone]
TrkA kinase
  IC50: < 10 nM
BCR-KIT BaF3 cells
  IC50: < 100 nM

## CCc1ccc(Nc2ccc(C(=O)c3c[nH]c4ncnc(NCC5CC5)c34)c(F)n2)cn1 [Compound P-4118, [4-(cyclopropylmethylamino)-7H-pyrrolo[2,3-d]pyrimidin-5-yl]-[6-[(6-ethyl-3-pyridyl)amino]-2-fluoro-3-pyridyl]methanone]
TrkA kinase
  IC50: < 10 nM
BCR-KIT BaF3 cells
  IC50: < 100 nM

## CCc1ccc(Nc2ccc(C(=O)c3c[nH]c4ncnc(NCCOC)c34)c(F)n2)cn1 [Compound P-4119, [6-[(6-ethyl-3-pyridyl)amino]-2-fluoro-3-pyridyl]-[4-(2-methoxyethylamino)-7H-pyrrolo[2,3-d]pyrimidin-5-yl]methanone]
TrkA kinase
  IC50: < 10 nM
BCR-KIT BaF3 cells
  IC50: < 100 nM

## CCc1ccc(Nc2ccc(C(=O)c3c[nH]c4ncnc(NCC(C)C)c34)c(F)n2)cn1 [Compound P-4121, [6-[(6-ethyl-3-pyridyl)amino]-2-fluoro-3-pyridyl]-[4-(isobutylamino)-7H-pyrrolo[2,3-d]pyrimidin-5-yl]methanone]
TrkA kinase
  IC50: < 100 nM
BCR-KIT BaF3 cells
  IC50: < 100 nM

## CCCNc1ncnc2[nH]cc(C(=O)c3ccc(Nc4ccc(CC)nc4)nc3F)c12 [Compound P-4122, [6-[(6-ethyl-3-pyridyl)amino]-2-fluoro-3-pyridyl]-[4-(propylamino)-7H-pyrrolo[2,3-d]pyrimidin-5-yl]methanone]
TrkA kinase
  IC50: < 10 nM
BCR-KIT BaF3 cells
  IC50: < 100 nM

## CCc1ccc(Nc2ccc(C(=O)c3c[nH]c4ncnc(NC5CC5)c34)c(F)n2)cn1 [Compound P-4125, [4-(cyclopropylamino)-7H-pyrrolo[2,3-d]pyrimidin-5-yl]-[6-[(6-ethyl-3-pyridyl)amino]-2-fluoro-3-pyridyl]methanone]
TrkA kinase
  IC50: < 10 nM
BCR-KIT BaF3 cells
  IC50: < 100 nM
